Target: WaaG (α-1,3-glucosyltransferase I) (Escherichia coli, UniProt P25740)
Test: […]-glucose transfer from UDP-Glc to truncated LPS, SDS-PAGE autoradiography, dose-response
Assay type: biochemical

WaaG (α-1,3-glucosyltransferase I), sequence (P25740 whole entry, the tested form may be a part): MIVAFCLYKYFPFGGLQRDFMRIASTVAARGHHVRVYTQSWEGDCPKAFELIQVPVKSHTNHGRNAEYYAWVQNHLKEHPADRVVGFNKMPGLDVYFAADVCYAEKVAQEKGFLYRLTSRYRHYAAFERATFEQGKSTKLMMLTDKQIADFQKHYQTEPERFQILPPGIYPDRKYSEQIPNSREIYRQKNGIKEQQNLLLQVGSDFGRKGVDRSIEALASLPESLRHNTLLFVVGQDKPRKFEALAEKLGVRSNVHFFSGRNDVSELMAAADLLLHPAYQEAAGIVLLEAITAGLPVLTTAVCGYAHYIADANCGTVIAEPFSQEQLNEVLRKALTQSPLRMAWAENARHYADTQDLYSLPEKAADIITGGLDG

Nc1nc(-c2ccc(O)cc2)cs1 [L1, 4-(2-amino-1,3-thiazol-4-yl)phenol]
IC50: 1000 µM
